{"source": "patent US20100104646A1", "about": "“NANOPARTICLE COMPOSITION FOR PREVENTION OF HAIR LOSS AND PROMOTION OF HAIR GROWTH” (priority 2006, published 2010)", "origin": "cited, not measured here", "test_system": "hair loss", "conditions": "clinical studies"}
{"compound": "CC(C)(C)NC(=O)[C@H]1CC[C@H]2[C@@H]3CC[C@H]4NC(=O)C=C[C@]4(C)[C@H]3CC[C@]12C", "note": "[Propecia]", "values": [{"measurement": "participants taking the drug in whom hair loss was prevented", "value": 68, "unit": "%"}, {"measurement": "participants who enjoyed hair regrowth", "setting": "participants taking the drug", "value": 66, "unit": "%"}]}
